Counter-ions that a name gives are not always drawn. Like-named read-outs stand apart in the source and are kept apart here.
Test system: Plasmodium falciparum 3D7 strain
Experiment: P. falciparum 3D7 asexual blood stage assay (SYBR green readout)
Type: cell-based
Summary of the method: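 P. falciparum 3D7 in A+ erythrocytes (5% haematocrit, 0.5% parasitaemia) exposed 72 h at 37 °C under 1% O2/3% CO2 to 20-point 1.5-fold titrations, 50,000–15 nM in 0.5% DMSO. SYBR green lysis overnight, fluorescence 485/528 nm; normalized to mefloquine and DMSO, EC50 from biphasic two-site fit.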

[1] = Plasmodium falciparum, 3D7, Erythrocyte, 72 h

Row | Compound | IC50 [1] | IC50 (P. falciparum 3D7 in human erythrocytes, 72 h incubation, SYBR green fluorescence, read-out: IC50)
1 | C[C@@H]1C[C@H](N2C(=N)N[C@](C)(c3cccc(NC(=O)c4nnc5ccccn45)c3Cl)CC2=O)CCO1 (relative stereo) [Example 62, N-(2-Chloro-3-{(4S)-2-imino-4-methyl-1-[(2R*,4R*)-2-methyl-tetrahydropyran-4-yl]-6-oxo-hexahydropyrimidin-4-yl]phenyl)-[1,2,4]triazolo[4,3-a]pyridine-3-carboxamide hydrochloride] | 23 nM | 
2 | Cc1cc(C(=O)Nc2cccc([C@]3(C)CC(=O)N([C@@H]4CCO[C@H](C)C4)C(=N)N3)c2Cl)c2nccn2c1 (relative stereo) [Example 28, N-(2-Chloro-3-{(4S)-2-imino-4-methyl-1-[(2R*,4R*)-2-methyl-tetrahydropyran-4-yl]-6-oxo-hexahydropyrimidin-4-yl}phenyl)-6-methylimidazo[1,2-a]pyridine-8-carboxamide trifluoroacetic acid salt] | 24 nM | 
3 | CC#Cc1cccc(C(=O)Nc2cccc([C@]3(C)CC(=O)N([C@@H]4CCO[C@H](C)C4)C(=N)N3)c2Cl)c1 (relative stereo) [Example 109, N-(2-Chloro-3-{(4S)-2-imino-4-methyl-1-[(2R*,4R*)-2-methyl-tetrahydropyran-4-yl]-6-oxo-hexahydropyrimidin-4-yl}phenyl)-3-(prop-1-ynyl)benzamide hydrochloride] | 23 nM | 
4 | C[C@@H]1C[C@H](N2C(=N)N[C@](C)(c3cccc(NC(=O)c4ccc(C(F)(F)F)nc4)c3Cl)CC2=O)CCO1 (relative stereo) [Example 21, N-(2-Chloro-3-{(4S)-2-imino-4-methyl-1-[(2R*,4R*)-2-methyl-tetrahydropyran-4-yl]-6-oxo-hexahydropyrimidin-4-yl}phenyl)-6-(trifluoromethyl)pyridine-3-carboxamide hydrochloride] | 231 nM | 
5 | COc1ncccc1C(=O)Nc1cccc([C@]2(C)CC(=O)N([C@@H]3CCO[C@H](C)C3)C(=N)N2)c1Cl (relative stereo) [Example 30, N-(2-Chloro-3-{(4S)-2-imino-4-methyl-1-[(2R*,4R*)-2-methyl-etrahydropyran-4-yl]-6-oxo-hexahydropyrimidin-4-yl]phenyl)-2-methoxypyridine-3-carboxamide trifluoroacetic acid salt] |  | 15 nM
6 | C[C@@H]1C[C@H](N2C(=N)N[C@](C)(c3cccc(NC(=O)c4ccc(F)c(C#N)c4)c3Cl)CC2=O)CCO1 (relative stereo) [Example 116, N-(2-Chloro-3-{(4S)-2-imino-4-methyl-1-[(2R* ,4R* )-2-methyl-tetrahydropyran-4-yl]-6-oxo-hexahydropyrimidin-4-yl]phenyl)-3-cyano-4-fluorobenzamide trifluoroacetic acid salt] | 89 nM | 
7 | C[C@@H]1C[C@H](N2C(=N)N[C@](C)(c3cccc(NC(=O)c4cccnc4C4CC4)c3Cl)CC2=O)CCO1 (relative stereo) [Example 57, N-(2-Chloro-3-{(4S)-2-imino-4-methyl-1-[(2R*,4R*)-2-methyl-tetrahydropyran-4-yl]-6-oxo-hexahydropyrimidin-4-yl]phenyl)-2-cyclopropylpyridine-3-carboxamide hydrochloride] | 476 nM | 
8 | C[C@@H]1C[C@H](N2C(=N)N[C@](C)(c3cccc(NC(=O)c4cncc(C(F)(F)F)c4)c3Cl)CC2=O)CCO1 (relative stereo) [Example 70, N-(2-Chloro-3-{(4S)-2-imino-4-methyl-1-[(2R*,4R*)-2-methyl-tetrahydropyran-4-yl]-6-oxo-hexahydropyrimidin-4-yl}phenyl)-5-(trifluoromethyl)pyridine-3-carboxamide hydrochloride] | 36 nM | 
9 | C[C@@H]1C[C@H](N2C(=N)N[C@](C)(c3cccc(NC(=O)c4cnc5ccccc5n4)c3Cl)CC2=O)CCO1 (relative stereo) [Example 31, N-(2-Chloro-3-{(4S)-2-imino-4-methyl-1-[(2R*,4R*)-2-methyl-tetrahydropyran-4-yl]-6-oxo-hexahydropyrimidin-4-yl}phenyl)-quinoxaline-2-carboxamide trifluoroacetic acid salt] | 13 nM | 
10 | C[C@@H]1C[C@H](N2C(=N)N[C@](C)(c3cccc(NC(=O)c4cncc(Cl)c4)c3Cl)CC2=O)CCO1 (relative stereo) [Example 39, 5-Chloro-N-(2-chloro-3-{(4S)-2-imino-4-methyl-1-[(2R*,4R*)-2-methyltetrahydropyran-4-yl]-6-oxo-hexahydropyrimidin-4-yl}phenyl)-pyridine-3-carboxamide trifluoroacetic acid salt] | 19 nM | 
11 | C[C@@H]1C[C@H](N2C(=N)N[C@](C)(c3cccc(NC(=O)c4ccc(OC(F)(F)F)cn4)c3Cl)CC2=O)CCO1 (relative stereo) [Example 47, N-(2-Chloro-3-{(4S)-2-imino-4-methyl-1-[(2R*,4R*)-2-methyl-tetrahydropyran-4-yl]-6-oxo-hexahydropyrimidin-4-yl]phenyl)-5-(trifluoromethoxy)pyridine-2-carboxamide trifluoroacetic acid salt] | 242 nM | 
12 | C[C@@H]1C[C@H](N2C(=N)N[C@](C)(c3cccc(NC(=O)c4ccc(F)cn4)c3Cl)CC2=O)CCO1 (relative stereo) [Example 13, N-(2-Chloro-3-{(4S)-2-imino-4-methyl-1-[(2R*,4R*)-2-methyl-tetrahydropyran-4-yl]-6-oxo-hexahydropyrimidin-4-yl]phenyl)-5-fluoropyridine-2-carboxamide hydrochloride] | 11 nM | 
13 | C[C@@H]1C[C@H](N2C(=N)N[C@](C)(c3cccc(NC(=O)c4ccnn4C)c3Cl)CC2=O)CCO1 (relative stereo) [Example 51, N-(2-Chloro-3-{(4S)-2-imino-4-methyl-1-[(2R*,4R*)-2-methyl-tetrahydropyran-4-yl]-6-oxo-hexahydropyrimidin-4-yl}phenyl)-2-methylpyrazole-3-carboxamide trifluoroacetic acid salt] | 59 nM | 
14 | C[C@@H]1C[C@H](N2C(=N)N[C@](C)(c3cccc(NC(=O)c4ccc(C(F)(F)F)cn4)c3Cl)CC2=O)CCO1 (relative stereo) [Example 18, N-(2-Chloro-3-{(4S)-2-imino-4-methyl-1-[(2R*,4R*)-2-methyl-tetrahydropyran-4-yl]-6-oxo-hexahydropyrimidin-4-yl}phenyl)-5-(trifluoromethyl)pyridine-2-carboxamide hydrochloride] | 46 nM | 
15 | C[C@@H]1C[C@H](N2C(=N)N[C@](C)(c3cccc(NC(=O)c4cccc(-n5cccn5)c4)c3Cl)CC2=O)CCO1 (relative stereo) [Example 90, N-(2-Chloro-3-{(4S)-2-imino-4-methyl-1-[(2R*,4R*)-2-methyl-tetrahydropyran-4-yl]-6-oxo-hexahydropyrimidin-4-yl}phenyl)-3-(pyrazol-1-yl)benzamide trifluoroacetic acid salt] | 23 nM | 
16 | C[C@@H]1C[C@H](N2C(=N)N[C@](C)(c3cccc(NC(=O)c4cccc(C#N)c4)c3Cl)CC2=O)C[C@H](C)O1 (relative stereo) [Example 24, N-(2-Chloro-3-{(4S)-1-[(2S*,6R*)-2,6-dimethyltetrahydropyran-4-yl]-2-imino-4-methyl-6-oxohexahydro-pyrimidin-4-yl]phenyl)-3-cyano-benzamide hydrochloride] | 28 nM | 
17 | C[C@@H]1C[C@H](N2C(=N)N[C@](C)(c3cccc(NC(=O)c4nc5ccccc5nc4C(F)(F)F)c3Cl)CC2=O)CCO1 (relative stereo) [Example 88, N-(2-Chloro-3-{(4S)-2-imino-4-methyl-1-[(2R*,4R*)-2-methyl-tetrahydropyran-4-yl]-6-oxo-hexahydropyrimidin-4-yl]phenyl)-3-(trifluoromethyl)quinoxaline-2-carboxamide trifluoroacetic acid salt] | 46 nM | 
18 | C[C@@H]1C[C@H](N2C(=N)N[C@](C)(c3cccc(NC(=O)c4ccc(C(F)(F)F)cc4)c3Cl)CC2=O)CCO1 (relative stereo) [Example 37, N-(2-Chloro-3-{(4S)-2-imino-4-methyl-1-[(2R*,4R*)-2-methyl-tetrahydropyran-4-yl]-6-oxo-hexahydropyrimidin-4-yl}phenyl)-4-(trifluoromethyl)benzamide trifluoroacetic acid salt] | 207 nM | 
19 | C[C@@H]1C[C@H](N2C(=N)N[C@](C)(c3cccc(NC(=O)c4ccccc4S(C)(=O)=O)c3Cl)CC2=O)CCO1 (relative stereo) [Example 81, N-(2-Chloro-3-{(4S)-2-imino-4-methyl-1-[(2R*,4R*)-2-methyl-tetrahydropyran-4-yl]-6-oxo-hexahydropyrimidin-4-yl}phenyl)-2-(methylsulfonyl)benzamide trifluoroacetic acid salt] | 182 nM | 
20 | C[C@@H]1C[C@H](N2C(=N)N[C@](C)(c3cccc(NC(=O)c4ccc(F)cc4)c3Cl)CC2=O)CCO1 (relative stereo) [Example 3, N-(2-Chloro-3-{(4S)-2-imino-4-methyl-1-[(2R*,4R*)-2-methyl-tetrahydropyran-4-yl]-6-oxo-hexahydropyrimidin-4-yl]phenyl)-4-fluorobenzamide hydrochloride] | 132 nM | 
21 | C[C@@H]1C[C@H](N2C(=N)N[C@](C)(c3cccc(NC(=O)c4cncn4C)c3Cl)CC2=O)CCO1 (relative stereo) [Example 103, N-(2-Chloro-3-{(4S)-2-imino-4-methyl-1-[(2R*,4R*)-2-methyl-tetrahydropyran-4-yl]-6-oxo-hexahydropyrimidin-4-yl}phenyl)-3-methylimidazole-4-carboxamide hydrochloride] | 17 nM | 
22 | C[C@@H]1C[C@H](N2C(=N)N[C@](C)(c3cccc(NC(=O)c4cc(Cl)cc(C#N)c4)c3Cl)CC2=O)CCO1 (relative stereo) [Example 77, 3-Chloro-N-(2-chloro-3-{(4S)-2-imino-4-methyl-1-[(2R*,4R*)-2-methyltetrahydropyran-4-yl]-6-oxo-hexahydropyrimidin-4-yl}phenyl)-5-cyanobenzamide hydrochloride] | 7 nM | 

From patent US20220289685A1, “ANTIMALARIAL HEXAHYDROPYRIMIDINE ANALOGUES” (UCB BIOPHARMA SRL, priority 2019, published 2022)
